Values joined by “and” are separate entries in the source; they are usually repeats but may differ in a detail not shown here. Equal entries are not always repeated. Where two headings read alike, the source gives them in different places.

In data set [1] the target is T1, A. terreus ODC (Aspergillus terreus, UniProt A0ACN5CWH9). Put plainly: Effect of inhibitors on activity of purified A. terreus ODC (residual activity, standard TNBS assay). It counts as biochemical. The following applies: for Relative Activity (%): enzyme preincubated 2 h, then L-ornithine, residual ODC activity; for activity at 5 µg/mL / activity at 40 µg/mL / activity at 200 µg/mL / activity at 400 µg/mL: read-out: Relative Activity (%); for IC50: 2 h preincubation. An excerpt:
The amino acid identity of the active sites implicated in the catalysis of A. terreus ODC has been scrutinized by the response to suicide inhibitors, namely propargylgycine (PPG), guanidine thiocyanate, hydroxylamine, iodoacetamide, DTNB, MBTH and curcumin. […] Consistently, curcumin has been extensively reported a strong inhibitor to the activity of tumor cells ODC, modulating the cellular polyamine metabolism. Elevated polyamine synthesis was recognized as profound compounds for survival and rapid proliferation of tumor cells, thus, targeting the ODC, rate limiting enzyme of polyamine synthesis, has been considered as powerful chemopreventive therapy for tumor cells. […] The enzyme irreversible inactivation by carbonyl reagents such as PPG, ensures the PLP dependence of these enzymes.
(§1) The activity of ODC was determined based on the amount of released putrescine using 2,4,6-tri-nitrobenzene sulfonic acid (TNBS) reagent. […] The reaction was stopped by 10% TCA then neutralized by adding adequate amount of 2N NaOH. 1-Pentanol (2 mL) was added was added to the reaction mixture which was subsequently vortexed for 1 min and centrifuged at 5000 rpm for 5 min. The upper layer was transferred into a new tube, combined with an equal volume of 0.1 M sodium borate (pH 8.0). After vigorously mixing, 500 µL of TNBS (10 mM) reagent was added, subjected to 1 min vortex before adding 2 mL DMSO, and centrifuging at 6000 rpm for 5 min and left to separate into two layers. The upper layer containing TNP-putrescine-TNP was collected by micropipette and the absorbance at λ = 420 nm will reveal putrescine concentration based on a parallel measurement of authentic putrescine at the same conditions. The enzyme protein concentration was measured by Folinʹs reagent, comparing to a known concentration of bovine serum albumin.
Active site prediction using amino acids analogues has been recognized as one of the mechanisms for interrogation of enzymatic identity. The influence of various inhibitors namely 5,5′-dithiobis-2-nitrobenzoic acid, 3-methyl-2-benzothiazolinone-hydrazone, guanidine thiocyanate, iodoacetamide, hydroxylamine, propargylglycine and curcumin on the activity of purified ODC was estimated. The enzyme was incubated with different inhibitor concentrations (5, 40, 200, 400 µg/mL) for 2 h at 30 °C, then amended with the substrate, and the residual activity of the enzyme were determined by the standard assay. The inhibitory kinetic parameters were measured according to El-Sayed et al.

For data set [2], the target named is T1, A. terreus ODC. Put plainly: Substrate specificity of purified ODC, Nessler's assay (ammonia). It counts as biochemical. The settings on record: for Nessler's Assay Activity: amino acid as substrate; for Nessler's Assay Relative Activity: normalized to L-ornithine as standard substrate. Here is the method: (§2) The specificity of purified A. terreus ODC towards various amino acids as substrates has been evaluated based on the putative enzymatic byproducts such as ammonia, citrulline and putrescine (see Materials and Methods). […] The putative deaminating, deiminating and decarboxylating activity of ODC for each substrate was assessed (Table 3).
(§3) The putative enzymatic byproducts such as ammonia, citrulline and putrescine were determined by Nessler’s reagent, diacetylmonoxime reagent and TNBS [42], respectively, under standard conditions. The kinetic parameters of A. terreus ODC; Michalis-Menten constant (Km), maximum velocity (Vmax), and turnover number (kcat) and catalytic efficiency towards the most hydrolysable amino acids were calculated.

Data set [3] concerns the target T1, A. terreus ODC. The data set can be described thus: Substrate specificity of purified ODC, TNBS assay (putrescine). It counts as biochemical. The following applies: released putrescine; for TNBS Assay Activity: amino acid as substrate; for TNBS Assay Relative Activity: normalized to L-ornithine. As for the experimental part:
as §2, §1, §3

Data set [4] concerns the target T1, A. terreus ODC. The data set can be described thus: Substrate specificity of purified ODC, diacetyl monoxime assay (citrulline / imino groups). It counts as biochemical. The settings on record: for Diacetyl Monoxime Assay Activity: amino acid as substrate. As for the experimental part: as §2, §3
The target of data set [5] is T1, A. terreus ODC. The data set can be described thus: Kinetic parameters of A. terreus ODC for substrates. The following applies: substrate of A. terreus ODC. As for the experimental part: as §2, §3
In data set [6] the target is T1, A. terreus ODC. It counts as biochemical. The following applies: Nessler's, diacetylmonoxime and TNBS assays. As for the experimental part: as §2, §3
For another data set, the system named is NCCCC[C@H](N)C(=O)O. The data set can be described thus: purified protein, by the assay type. The settings on record: other: substrate of A. terreus ODC.
The next data set concerns N=C(N)NCCC[C@H](N)C(=O)O. Put plainly: purified protein, by the assay type. The following applies: other: substrate of A. terreus ODC.

Procedure for N=C(N)NCCC[C@H](N)C(=O)O: (§4) The putative enzymatic byproducts such as ammonia, citrulline and putrescine were determined by Nessler’s reagent [66], diacetylmonoxime reagent [36] and TNBS [42], respectively, under standard conditions. The kinetic parameters of A. terreus ODC; Michalis-Menten constant (Km), maximum velocity (Vmax), and turnover number (kcat) and catalytic efficiency towards the most hydrolysable amino acids were calculated.
Procedure for NCCCC[C@H](N)C(=O)O: as §4

For `O=C(O)c1cc(SSc2ccc([N+](=O)[O-])c(C(=O)O)c2)ccc1[N+](=O)[O-]` [5-5′-Dithiobis-(2-nitro-benzoic acid), 5,5′-dithiobis-2-nitrobenzoic acid], the “Relative Activity (%)” value on A. terreus ODC [1] (inhibitor 5 µg/mL) is 39%; at A. terreus ODC [1] (inhibitor 40 µg/mL) it was 27%; on A. terreus ODC [1] (inhibitor 200 µg/mL), 14%; on A. terreus ODC [1] (inhibitor 400 µg/mL), 5.8%.
In the case of `Cn1c(=NN)sc2ccccc21` [3-Methyl-2-benzo-thiazolinone hydrazone, 3-methyl-2-benzothiazolinone-hydrazone], on A. terreus ODC [1], the activity at 5 µg/mL came out at 41%, the activity at 40 µg/mL was 29%, the activity at 200 µg/mL stood at 12% and the activity at 400 µg/mL was determined as 0%.
In the case of `NCCCC(N)(C(=O)O)C(F)F` (stereo not drawn) [DFMO, Difluoromethylornithine], the “Relative Activity (%)” value stood at 8% at A. terreus ODC [1] (inhibitor 5 µg/mL), 0.1% at A. terreus ODC [1] (inhibitor 40 µg/mL), 0% on A. terreus ODC [1] (inhibitor 200 µg/mL) and 0% at A. terreus ODC [1] (inhibitor 400 µg/mL). Also, the IC50 against A. terreus ODC [1] (purified A. terreus ODC) amounted to 0.02 µg/mL.
Take `NCCC[C@H](N)C(=O)O` [L-Ornithine]: the “Nessler's Assay Activity” value on A. terreus ODC [2] amounted to 1.87 µmol/mg/min. For the same molecule, the “TNBS Assay Activity” value on A. terreus ODC [3] worked out at 2.1 µmol/mg/min. On A. terreus ODC [4] (deiminating activity), the “Diacetyl Monoxime Assay Activity” value is on record as 0.0035 µmol/mg/min. The Km on A. terreus ODC [5] stood at 950 µM; on A. terreus ODC [5] (listed as L-ornithine), 900 µM. Moreover, the Vmax on A. terreus ODC [5] stood at 4.8 µmol/mg/min.
Consider `CC(C)[C@H](N)C(=O)O` [L-valine], for which, at A. terreus ODC [6], the “affinity of purified ODC towards the amino acid as substrate” value (“affinity” below) was “no detectable affinity”.
`C[C@H](N)C(=O)O` [L-alanine]: at A. terreus ODC [6], the “affinity” value is “no detectable affinity”.
With `CSCC[C@H](N)C(=O)O` [L-methionine], the “affinity” value on A. terreus ODC [6] is “no detectable affinity”.
As for `NC(=O)CI` [Iodoacetamide, iodoacetamide], the “Relative Activity (%)” value at A. terreus ODC [1] (inhibitor 5 µg/mL) is 37%; on A. terreus ODC [1] (inhibitor 40 µg/mL), 19%; at A. terreus ODC [1] (inhibitor 200 µg/mL), 10%; on A. terreus ODC [1] (inhibitor 400 µg/mL), 0%.
For the molecule `C#CCC(N)C(=O)O` (stereo not drawn) [Propargylgycine, propargylglycine], the “Relative Activity (%)” value on A. terreus ODC [1] (inhibitor 5 µg/mL) is 89%; on A. terreus ODC [1] (inhibitor 40 µg/mL), 30%; at A. terreus ODC [1] (inhibitor 200 µg/mL) it was 17%; on A. terreus ODC [1] (inhibitor 400 µg/mL), 6%. At A. terreus ODC [1] (purified A. terreus ODC), this molecule had an IC50 of 20.9 µg/mL.
In the case of `NC(=O)CC[C@H](N)C(=O)O` [L-glutamine], the “affinity” value on A. terreus ODC [6] is “no detectable affinity”.
As to “A. terreus ODC (Aspergillus terreus NIH2624)”, the Km stood at 1340 µM in the data set with NCCCC[C@H](N)C(=O)O and 1400 µM in the data set with N=C(N)NCCC[C@H](N)C(=O)O. Further, the kcat/Km was found to be 0.0283 M⁻¹ s⁻¹ in the data set with NCCCC[C@H](N)C(=O)O and 0.0246 M⁻¹ s⁻¹ in the data set with N=C(N)NCCC[C@H](N)C(=O)O.
As for `N#CS.N=C(N)N` [Guanidine thiocyanate, guanidine thiocyanate], the “Relative Activity (%)” value at A. terreus ODC [1] (inhibitor 5 µg/mL) came to 90%; at A. terreus ODC [1] (inhibitor 40 µg/mL), 60%; at A. terreus ODC [1] (inhibitor 200 µg/mL) it was 30%.
Regarding `NCCCC[C@H](N)C(=O)O` [L-Lysine], on A. terreus ODC [2], the “Nessler's Assay Activity” value is on record as 0 µmol/mg/min and the “Nessler's Assay Relative Activity” value came to 0%. Moreover, on A. terreus ODC [3], the “TNBS Assay Activity” value was found to be 0.44 µmol/mg/min and the “TNBS Assay Relative Activity” value turned out to be 20.9%. The “Diacetyl Monoxime Assay Activity” value at A. terreus ODC [4] (deiminating activity) stood at 0.0045 µmol/mg/min. Moreover, at A. terreus ODC [4] (deiminating activity, normalized to L-ornithine), the “Diacetyl Monoxime Assay Relative Activity” value was found to be 128%.
As for `N[C@@H](Cc1c[nH]c2ccccc12)C(=O)O` [L-tryptophan], the “affinity” value on A. terreus ODC [6] is listed as “no detectable affinity”.
Regarding `CC(=O)N[C@@H]1[C@@H](O)[C@H](O)[C@@H](CO)O[C@H]1O` [N-acetylglucosamine], the “affinity” value on A. terreus ODC [6] is “no detectable affinity”.
Still for that read-out and setting: the value for `NC(=O)C[C@H](N)C(=O)O` [L-asparagine] was “no detectable affinity”.
For the molecule `N=C(N)NCCC[C@H](N)C(=O)O` [L-Arginine], on A. terreus ODC [2], the “Nessler's Assay Activity” value stood at 0.35 µmol/mg/min and the “Nessler's Assay Relative Activity” value amounted to 19%. Besides, at A. terreus ODC [3], the “TNBS Assay Activity” value was determined as 0.34 µmol/mg/min and the “TNBS Assay Relative Activity” value was determined as 16.2%. Also, the “Diacetyl Monoxime Assay Relative Activity” value on A. terreus ODC [4] is 194%. Further, the “Diacetyl Monoxime Assay Activity” value at A. terreus ODC [4] (deiminating activity) is 0.0068 µmol/mg/min.
On to `NCC(=O)O` [L-glycine], for which the “affinity” value on A. terreus ODC [6] is on record as “no detectable affinity”.
As for `N[C@@H](CS)C(=O)O` [L-cysteine], the “affinity” value at A. terreus ODC [6] was “no detectable affinity”.
As for `N[C@@H](Cc1ccc(O)cc1)C(=O)O` [L-tyrosine], the “affinity” value at A. terreus ODC [6] is on record as “no detectable affinity”.
On to `NO` [Hydroxylamine, hydroxylamine], for which the “Relative Activity (%)” value on A. terreus ODC [1] (inhibitor 5 µg/mL) came out at 45%; at A. terreus ODC [1] (inhibitor 40 µg/mL), 13%; at A. terreus ODC [1] (inhibitor 200 µg/mL), 0%; on A. terreus ODC [1] (inhibitor 400 µg/mL), 0%.
Turning to `COc1cc(/C=C/C(=O)CC(=O)/C=C/c2ccc(O)c(OC)c2)ccc1O` [Curcumin, diferuloylmethane], on A. terreus ODC [1] (IC50, purified A. terreus ODC), the IC50 is ~109 nM and 109 nM. At A. terreus ODC [1], the activity at 5 µg/mL came to 11%, the activity at 40 µg/mL was found to be 0%, the activity at 200 µg/mL came out at 0% and the activity at 400 µg/mL was 0%.

By IC50 is commonly meant the midpoint of a concentration-inhibition curve. A low value points to higher potency. In general, Km refers to the concentration of substrate that gives half-maximal velocity. In general, Vmax refers to the rate approached at saturating substrate. As usually defined, the kcat/Km is the second-order rate constant that governs catalysis at low substrate concentration.

These data come from publication PMC6696095, “Purification and Characterization of Ornithine Decarboxylase from Aspergillus terreus; Kinetics of Inhibition by Various Inhibitors” (Molecules, 2019).
